In the NIST ThermoML archive (doi:10.1021/acs.jced.9b00703):
Numbers after ± are expanded uncertainties.

Experiments:
[1] = Crystal; DSC
[2] = Molar enthalpy of transition or fusion; settings: Crystal; DSC

OC[C@H]1O[C@@H](Oc2ccc(O)cc2)[C@H](O)[C@@H](O)[C@@H]1O [β-arbutin]
Triple point temperature [1]: 475.25 ± 0.87 K
Molar enthalpy of transition or fusion [2]: 10.7 ± 0.382 kcal/mol
